Data on 15 molecules can be found in patent US11814367B2, “Inhibitors of glycogen synthase 1 (GYS1) and methods of use thereof” (Maze Therapeutics, Inc., priority 2021, dated 2023).

Structures are written as SMILES.

The target of test [1] is hGYS2 enzyme (recombinant hGYS2/GN1 protein) (Homo sapiens (Human), UniProt P54840). As to the kind of experiment: GYS2 coupled enzyme assay (PK/LDH). In kind it is biochemical. The conditions noted are these: geometric mean of at least 2 assay runs on separate days, read-out: Avg_IC50. Put shortly: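 IC50 came from Hill fits of duplicate percent inhibition, based on control-normalized slopes of 340 nm NADH decline read each minute for 10 min. The reaction held recombinant hGYS2/GN1 (200 nM) with glycogen, UDP-glucose, G6P and PEP, plus PK/LDH coupling at pH 7.5 and 2.5% DMSO.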

For test [2], the target named is hGYS1 enzyme (recombinant hGYS1/GN1 protein) (Homo sapiens (Human), UniProt P13807). The test can be described thus: GYS1 coupled enzyme assay (PK/LDH). As to conditions: hGYS1/GN1 50 nM, UDP-Glucose 0.8 mM, G6P 1 mM; geometric mean of at least 2 runs. It counts as biochemical.
Test [3] has as its system hGYS1 enzyme / glycogen synthesis in HeLa cells. The test can be described thus: GYS1 cell based assay (glycogen synthesis, Glucose-glo). Set-up: species or system human. As to conditions: Homo sapiens, HeLa, 24 h, 24 h incubation, 20 mM glucose, geometric mean of at least 2 runs. In outline: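 HeLa cells starved 24 h in medium containing only 1× Glutamax were plated onto compound in medium with 20 mM glucose (1% DMSO final) for 24 h, 37 °C, 5% CO2. Acid lysates were Tris-quenched, glucoamylase-digested (pH 5.3, 1 h, 37 °C) and read by Glucose-glo luminescence. IC50 came from Hill fits, as geometric mean of ≥2 runs.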

Sequence of hGYS1 enzyme (recombinant hGYS1/GN1 protein) (P13807 whole entry): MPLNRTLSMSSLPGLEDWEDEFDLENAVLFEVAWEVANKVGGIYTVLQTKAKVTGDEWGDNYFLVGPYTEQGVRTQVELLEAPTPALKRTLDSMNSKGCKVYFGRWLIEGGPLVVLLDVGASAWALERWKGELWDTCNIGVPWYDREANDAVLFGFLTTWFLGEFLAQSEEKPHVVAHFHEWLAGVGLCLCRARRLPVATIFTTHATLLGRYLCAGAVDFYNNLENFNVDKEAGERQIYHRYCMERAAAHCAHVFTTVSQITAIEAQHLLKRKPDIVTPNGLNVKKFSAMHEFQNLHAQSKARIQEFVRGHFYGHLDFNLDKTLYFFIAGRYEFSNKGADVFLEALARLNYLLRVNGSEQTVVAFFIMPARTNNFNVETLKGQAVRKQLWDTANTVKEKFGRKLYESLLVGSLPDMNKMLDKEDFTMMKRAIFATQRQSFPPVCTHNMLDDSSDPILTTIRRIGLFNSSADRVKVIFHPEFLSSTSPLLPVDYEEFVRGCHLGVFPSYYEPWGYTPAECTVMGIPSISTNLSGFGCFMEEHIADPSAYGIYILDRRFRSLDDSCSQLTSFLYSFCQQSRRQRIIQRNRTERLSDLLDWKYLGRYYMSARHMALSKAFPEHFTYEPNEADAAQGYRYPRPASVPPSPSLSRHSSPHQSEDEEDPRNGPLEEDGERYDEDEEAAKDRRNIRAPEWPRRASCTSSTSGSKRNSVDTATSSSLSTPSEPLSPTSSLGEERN
Sequence of hGYS1 enzyme (recombinant hGYS1/GN1 protein) (P46976 whole entry partner): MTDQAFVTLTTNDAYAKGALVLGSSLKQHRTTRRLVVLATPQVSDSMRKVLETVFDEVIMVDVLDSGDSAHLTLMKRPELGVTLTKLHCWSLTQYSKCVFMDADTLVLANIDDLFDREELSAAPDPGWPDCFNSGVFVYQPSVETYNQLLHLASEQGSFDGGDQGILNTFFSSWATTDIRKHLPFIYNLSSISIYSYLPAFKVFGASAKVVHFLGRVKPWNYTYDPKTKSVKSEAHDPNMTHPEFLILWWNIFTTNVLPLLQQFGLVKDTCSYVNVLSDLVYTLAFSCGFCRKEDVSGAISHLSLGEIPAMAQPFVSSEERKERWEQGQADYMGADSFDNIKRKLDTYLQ
Sequence of hGYS2 enzyme (recombinant hGYS2/GN1 protein) (P54840 whole entry): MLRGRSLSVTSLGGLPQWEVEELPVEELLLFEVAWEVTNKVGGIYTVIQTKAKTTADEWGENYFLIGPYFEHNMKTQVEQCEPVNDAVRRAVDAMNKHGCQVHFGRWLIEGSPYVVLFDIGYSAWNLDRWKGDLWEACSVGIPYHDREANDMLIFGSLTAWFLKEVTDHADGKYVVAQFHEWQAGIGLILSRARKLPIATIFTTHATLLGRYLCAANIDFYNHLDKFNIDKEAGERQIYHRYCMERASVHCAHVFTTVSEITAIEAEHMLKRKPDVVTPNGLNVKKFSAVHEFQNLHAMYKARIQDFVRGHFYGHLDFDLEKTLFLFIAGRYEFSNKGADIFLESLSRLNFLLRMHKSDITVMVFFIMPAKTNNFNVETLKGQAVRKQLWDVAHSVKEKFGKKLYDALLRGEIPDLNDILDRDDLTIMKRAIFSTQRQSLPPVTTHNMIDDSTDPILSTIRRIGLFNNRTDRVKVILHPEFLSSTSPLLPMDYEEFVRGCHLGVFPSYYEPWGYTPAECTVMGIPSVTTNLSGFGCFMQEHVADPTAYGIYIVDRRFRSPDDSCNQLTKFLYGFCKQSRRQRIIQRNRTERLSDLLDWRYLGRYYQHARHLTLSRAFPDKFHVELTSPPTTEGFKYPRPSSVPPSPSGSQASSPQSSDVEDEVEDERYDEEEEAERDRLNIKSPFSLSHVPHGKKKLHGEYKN
Sequence of hGYS2 enzyme (recombinant hGYS2/GN1 protein) (P46976 whole entry partner): as the sequence (P46976 whole entry partner) above

For `O=C(N[C@@H](c1ccccc1)c1ccc(C2CC2)c(F)c1)[C@@H]1C[C@@H](F)CN1C(=O)Cc1cnc2ccccn12` [Compound 479, (2S,4R)-N-[(S)-(4-cyclopropyl-3-fluorophenyl)(phenyl)methyl]-4-fluoro-1-(2-{imidazo[1,2-a]pyridin-3-yl}acetyl)pyrrolidine-2-carboxamide], the results for the IC50 in test [1], in test [2] and in test [3] were above 100 µM, 0.055 µM and 1.43 µM, respectively.

`Cc1ccc2cc(CC(=O)N3C[C@H](F)C[C@H]3C(=O)N[C@@H](c3ccccc3)c3ccc(C4CC4)c(F)c3)ccc2n1` [Compound 480, (2S,4R)-N-[(S)-(4-cyclopropyl-3-fluorophenyl)(phenyl)methyl]-4-fluoro-1-[2-(2-methylquinolin-6-yl)acetyl]pyrrolidine-2-carboxamide]: the results for the IC50 in test [1], in test [2] and in test [3] were above 100 µM, 0.079 µM and 1.12 µM, respectively.

On to `O=C(N[C@@H](c1ccccc1)c1ccc(C2CC2)c(F)c1)[C@@H]1C[C@@H](F)CN1C(=O)Cn1cnnc1` [Compound 481, (2S,4R)-N-[(S)-(4-cyclopropyl-3-fluorophenyl)(phenyl)methyl]-4-fluoro-1-[2-(4H-1,2,4-triazol-4-yl)acetyl]pyrrolidine-2-carboxamide], for which the figures for the IC50 in test [1], in test [2] and in test [3] were above 100 µM, 0.247 µM and 7.77 µM, respectively.

For `O=C(N[C@@H](c1ccccc1)c1ccc(C2CC2)c(F)c1)[C@@H]1C[C@@H](F)CN1C(=O)Cc1cccn2c(=O)[nH]nc12` [Compound 482, (2S,4R)-N-[(S)-(4-cyclopropyl-3-fluorophenyl)(phenyl)methyl]-4-fluoro-1-(2-{3-oxo-2H,3H-[1,2,4]triazolo[4,3-a]pyridin-8-yl}acetyl) pyrrolidine-2-carboxamide], the figures for the IC50 in test [1], in test [2] and in test [3] were above 100 µM, 0.068 µM and 1.41 µM, respectively.

With `CN(C)c1cnn(CC(=O)N2C[C@H](F)C[C@H]2C(=O)N[C@@H](c2ccccc2)c2ccc(C3CC3)c(F)c2)n1` [Compound 483, (2S,4R)-N-[(S)-(4-cyclopropyl-3-fluorophenyl)(phenyl)methyl]-1-{2-[4-(dimethylamino)-2H-1,2,3-triazol-2-yl]acetyl}-4-fluoropyrrolidine-2-carboxamide], the IC50 was above 100 µM in test [1], 0.049 µM in test [2] and 0.72 µM in test [3].

In the case of `CN(C)c1cn(CC(=O)N2C[C@H](F)C[C@H]2C(=O)N[C@@H](c2ccccc2)c2ccc(C3CC3)c(F)c2)nn1` [Compound 484, (2S,4R)-N-[(S)-(4-cyclopropyl-3-fluorophenyl)(phenyl)methyl]-1-{2-[4-(dimethylamino)-1H-1,2,3-triazol-1-yl]acetyl}-4-fluoropyrrolidine-2-carboxamide], the IC50 was above 100 µM in test [1], 0.066 µM in test [2] and 0.82 µM in test [3].

For `CC(C)(C)OC(=O)NCc1nnc(CC(=O)N2C[C@H](F)C[C@H]2C(=O)N[C@@H](c2ccccc2)c2ccc(C3CC3)c(F)c2)o1` [Compound 485, tert-butyl N-[(5-{2-[(2S,4R)-2-{[(S)-(4-cyclopropyl-3-fluorophenyl)(phenyl)methyl]carbamoyl}-4-fluoropyrrolidin-1-yl]-2-oxoethyl}-1,3,4-oxadiazol-2-yl)methyl]carbamate], the IC50 in test [1] was above 100 µM; in test [2], 0.21 µM; in test [3], 3.72 µM.

Turning to `CN1CCN(C(=O)NCC(=O)N2C[C@H](F)C[C@H]2C(=O)N[C@@H](c2ccccc2)c2ccc(C3CC3)c(F)c2)CC1` [Compound 486, N-{2-[(2S,4R)-2-{[(S)-(4-cyclopropyl-3-fluorophenyl)(phenyl)methyl]carbamoyl}-4-fluoropyrrolidin-1-yl]-2-oxoethyl}-4-methylpiperazine-1-carboxamide], the results for the IC50 in test [1], in test [2] and in test [3] were above 100 µM, 0.041 µM and 1.02 µM, respectively.

As to `O=C(N[C@@H](c1ccccc1)c1ccc(C2CC2)c(F)c1)[C@@H]1C[C@@H](F)CN1C(=O)CNC(=O)N1CCN(CC(F)(F)F)CC1` [Compound 487, N-{2-[(2S,4R)-2-{[(S)-(4-cyclopropyl-3-fluorophenyl)(phenyl)methyl]carbamoyl}-4-fluoropyrrolidin-1-yl]-2-oxoethyl}-4-(2,2,2-trifluoroethyl) piperazine-1-carboxamide], the IC50 in test [1] is above 100 µM; in test [2] it was 0.068 µM; in test [3], 2.09 µM.

Take `COCCN1CCN(C(=O)NCC(=O)N2C[C@H](F)C[C@H]2C(=O)N[C@@H](c2ccccc2)c2ccc(C3CC3)c(F)c2)CC1` [Compound 488, N-{2-[(2S,4R)-2-{[(S)-(4-cyclopropyl-3-fluorophenyl)(phenyl)methyl]carbamoyl}-4-fluoropyrrolidin-1-yl]-2-oxoethyl}-4-(2-methoxyethyl) piperazine-1-carboxamide]: the values for the IC50 in test [1], in test [2] and in test [3] were above 100 µM, 0.031 µM and 0.88 µM, respectively.

With `O=C(N[C@@H](c1ccccc1)c1ccc(C2CC2)c(F)c1)[C@@H]1C[C@@H](F)CN1C(=O)CNC(=O)N1CCN(CC2CC2)CC1` [Compound 490, N-{2-[(2S,4R)-2-{[(S)-(4-cyclopropyl-3-fluorophenyl)(phenyl)methyl]carbamoyl}-4-fluoropyrrolidin-1-yl]-2-oxoethyl}-4-(cyclopropylmethyl) piperazine-1-carboxamide], the IC50 in test [1] was above 100 µM; in test [2], 0.052 µM; in test [3], 2.87 µM.

Take `O=C(N[C@@H](c1ccccc1)c1ccc(C2CC2)c(F)c1)[C@@H]1C[C@@H](F)CN1C(=O)Cc1n[nH]c(=O)[nH]1` [Compound 491, (2S,4R)-N-[(S)-(4-cyclopropyl-3-fluorophenyl)(phenyl)methyl]-4-fluoro-1-[2-(5-oxo-4,5-dihydro-1H-1,2,4-triazol-3-yl)acetyl]pyrrolidine-2-carboxamide]: the results for the IC50 in test [1], in test [2] and in test [3] were above 100 µM, 0.093 µM and 5.55 µM, respectively.

As for `O=C(N[C@@H](c1ccccc1)c1ccc(C2CC2)c(F)c1)[C@@H]1C[C@@H](F)CN1C(=O)Cc1noc(=O)[nH]1` [Compound 492, (2S,4R)-N-[(S)-(4-cyclopropyl-3-fluorophenyl)(phenyl)methyl]-4-fluoro-1-[2-(5-oxo-4,5-dihydro-1,2,4-oxadiazol-3-yl)acetyl]pyrrolidine-2-carboxamide], the IC50 in test [1] is above 100 µM; in test [2], 0.138 µM; in test [3], above 30 µM.

Take `O=C(N[C@@H](c1ccccc1)c1ccc(C2CC2)c(F)c1)[C@@H]1C[C@@H](F)CN1C(=O)CNC(=O)N1CC(F)(F)C1` [Compound 495, (2S,4R)-N-[(S)-(4-cyclopropyl-3-fluorophenyl)(phenyl)methyl]-1-{2-[(3,3-difluoroazetidine-1-carbonyl)amino]acetyl}-4-fluoropyrrolidine-2-carboxamide]: the IC50 in test [1] is above 100 µM; in test [2], 0.066 µM; in test [3], 1.5 µM.

On to `O=C(N[C@@H](c1ccccc1)c1ccc(C2CC2)c(F)c1)[C@@H]1C[C@@H](F)CN1C(=O)CNC(=O)N1CC(C(F)(F)F)C1` [Compound 496, (2S,4R)-N-[(S)-(4-cyclopropyl-3-fluorophenyl)(phenyl)methyl]-4-fluoro-1-(2-{[3-(trifluoromethyl)azetidine-1-carbonyl]amino}acetyl) pyrrolidine-2-carboxamide], for which the IC50 in test [1] was above 100 µM; in test [2], 0.086 µM; in test [3], 1.82 µM.
